The results in this text go back to article PMC8286840, “Identifying SARS-CoV-2 antiviral compounds by screening for small molecule inhibitors of Nsp3 papain-like protease” (Biochemical Journal, 2021).

For test [1], the target named is T1, SARS-CoV-2 PLpro (nsp3 1564–1878) (Severe acute respiratory syndrome coronavirus 2, UniProt P0DTD1). In words: biochemical. More on the design: FRET-quenched peptide (Pro3) cleavage by PLpro, 10 min pre-incubation, slope over 20 min, normalised to no-compound control. Conditions: low concentration screen.
The target of test [2] is T1, SARS-CoV-2 PLpro (nsp3 1564–1878). In words: biochemical. Set-up: FRET-quenched peptide (Pro3) cleavage by PLpro, 10 min pre-incubation, slope over 20 min, normalised to no-compound control. Conditions: high concentration screen.
[3] abbreviates: Well no.=1187, read-out: % of control remaining.
The mark [4] stands for this setting: Well no.=4815, read-out: % of control remaining.
Where [5] appears, read: Well no.=4762, read-out: % of control remaining.
The mark [6] stands for this setting: Well no.=8493, read-out: % of control remaining.
The mark [7] stands for this setting: Well no.=1516, read-out: % of control remaining.
The mark [8] stands for this setting: Well no.=2006, read-out: % of control remaining.
Setting [9] is: Well no.=6715, read-out: % of control remaining.
The mark [10] stands for this setting: Well no.=1333, read-out: % of control remaining.
[11] abbreviates: Well no.=7663, read-out: % of control remaining.
Setting [12] is: Well no.=4979, read-out: % of control remaining.
Where [13] appears, read: Well no.=1197, read-out: % of control remaining.
The mark [14] stands for this setting: read-out: % of control remaining, Well no.=4642.
Where [15] appears, read: Well no.=1985, read-out: % of control remaining.
[16] abbreviates: Well no.=8554, read-out: % of control remaining.
The mark [17] stands for this setting: Well no.=1630, read-out: % of control remaining.
Where [18] appears, read: Well no.=1570, read-out: % of control remaining.
Where [19] appears, read: Well no.=3188, read-out: % of control remaining.
The mark [20] stands for this setting: Well no.=3899, read-out: % of control remaining.
Where [21] appears, read: Well no.=3469, read-out: % of control remaining.
Where [22] appears, read: Well no.=7467, read-out: % of control remaining.
Setting [23] is: Well no.=2008, read-out: % of control remaining.
The mark [24] stands for this setting: Well no.=6571, read-out: % of control remaining.
The mark [25] stands for this setting: Well no.=4916, read-out: % of control remaining.
Setting [26] is: Well no.=4866, read-out: % of control remaining.
Where [27] appears, read: Well no.=291, read-out: % of control remaining.
Where [28] appears, read: Well no.=7365, read-out: % of control remaining.
[29] abbreviates: Well no.=3376, read-out: % of control remaining.
[30] abbreviates: Well no.=3207, read-out: % of control remaining.
[31] abbreviates: Well no.=3209, read-out: % of control remaining.
Setting [32] is: Well no.=4962, read-out: % of control remaining.
Setting [33] is: Well no.=8060, read-out: % of control remaining.
[34] abbreviates: Well no.=7162, read-out: % of control remaining.

Structures can show the parent of a compound that is named as a salt. Where two headings read alike, the source gives them in different places. Where a SMILES comes first, the peptide text is derived from it. [ ]: non-standard residue; d: D form. αMeP = C[C@@]1(C(=O)O)CCCN1

As to `OC(CCN1CCCCC1)(c1ccccc1)C1CCCCC1` (centres unmarked) [Trihexyphenidyl hydrochloride], the remaining activity at 1.25 µM in test [1] (setting [3]) was 92.8%. In addition, the remaining activity at 3.75 µM in test [2] (setting [3]) amounted to 92%.
Regarding `C[C@]12CC[C@H]3[C@@H](CC[C@@]45O[C@@H]4C(O)=C(C#N)C[C@]35C)[C@@H]1CC[C@@H]2O` [Trilostane], in test [1] (setting [4]), the remaining activity at 1.25 µM came to 101%. Moreover, the remaining activity at 3.75 µM in test [2] (setting [4]) is 107%.
Take `CCC(COC(=O)c1cc(OC)c(OC)c(OC)c1)(c1ccccc1)N(C)C` (centres unmarked) [Trimebutine]: in test [1] (setting [5]), the remaining activity at 1.25 µM was 103%. Moreover, the remaining activity at 3.75 µM in test [2] (setting [5]) was 105%.
`COc1cc(C(=O)NCc2ccc(OCCN(C)C)cc2)cc(OC)c1OC` [Trimethobenzamide hydrochloride]: the remaining activity at 1.25 µM in test [1] (setting [6]) was determined as 90.1%. In test [2] (setting [6]), the remaining activity at 3.75 µM was 91.3%.
Take `COc1cc(Cc2cnc(N)nc2N)cc(OC)c1OC` [Trimethoprim]: the remaining activity at 1.25 µM in test [1] (setting [7]) was 96%; in test [1] (setting [8]), 99.3%. Besides, the remaining activity at 3.75 µM in test [2] (setting [7]) was determined as 94.5%; in test [2] (setting [8]), 97.8%.
On to `CC(CN(C)C)CN1c2ccccc2CCc2ccccc21` (centres unmarked) [Trimipramine (maleate)], for which the remaining activity at 1.25 µM in test [1] (setting [9]) was 106%. In addition, in test [2] (setting [9]), the remaining activity at 3.75 µM worked out at 100%.
On to `CC(CN(C)C)CN1c2ccccc2CCc2ccccc21` (centres unmarked) [Trimipramine maleate], for which, in test [1] (setting [10]), the remaining activity at 1.25 µM was 104%. In test [2] (setting [10]), the remaining activity at 3.75 µM worked out at 102%.
Turning to `CN(C)CCN(Cc1ccccc1)c1ccccn1` [Tripelennamine (hydrochloride)], the remaining activity at 1.25 µM in test [1] (setting [11]) is 99.1%. Besides, the remaining activity at 3.75 µM in test [2] (setting [11]) stood at 98.8%.
`CN(C)CCN(Cc1ccccc1)c1ccccn1` [Tripelennamine HCl]: in test [1] (setting [12]), the remaining activity at 1.25 µM worked out at 94.3%. Also, the remaining activity at 3.75 µM in test [2] (setting [12]) came to 93%.
For the compound `Cc1ccc(/C(=C\CN2CCCC2)c2ccccn2)cc1` [Triprolidine hydrochloride], the remaining activity at 1.25 µM in test [1] (setting [13]) was determined as 87.7%. Moreover, the remaining activity at 3.75 µM in test [2] (setting [13]) amounted to 90.1%.
As for `CC(C)[C@]12O[C@H]1[C@@H]1O[C@]13[C@]1(O[C@H]1C[C@H]1C4=C(CC[C@@]13C)C(=O)OC4)[C@@H]2O` [Triptolide], in test [1] (setting [14]), the remaining activity at 1.25 µM was determined as 99.8%. Moreover, the remaining activity at 3.75 µM in test [2] (setting [14]) worked out at 98.1%.
As to `CC(C)C[C@H](NC(=O)[C@@H](Cc1c[nH]c2ccccc12)NC(=O)[C@H](Cc1ccc(O)cc1)NC(=O)[C@H](CO)NC(=O)[C@H](Cc1c[nH]c2ccccc12)NC(=O)[C@H](Cc1c[nH]cn1)NC(=O)[C@@H]1CCC(=O)N1)C(=O)N[C@@H](CCCNC(=N)N)C(=O)N1CCC[C@H]1C(=O)NCC(N)=O` [Triptorelin], in test [1] (setting [15]), the remaining activity at 1.25 µM was 100%. The remaining activity at 3.75 µM in test [2] (setting [15]) stood at 101%.
In the case of `C[C@@]1(C(=O)N[C@@H](CCC(=O)O)C(=O)O)CCCN1C(=O)CN` [Trofinetide] (H-Gly-[αMeP]-Glu-OH), in test [1] (setting [16]), the remaining activity at 1.25 µM was 108%. Also, the remaining activity at 3.75 µM in test [2] (setting [16]) was found to be 98.6%.
For the compound `Cc1c(C)c2c(c(C)c1O)CCC(C)(COc1ccc(CC3SC(=O)NC3=O)cc1)O2` (centres unmarked) [Troglitazone], the remaining activity at 1.25 µM in test [1] (setting [17]) is 101%. Besides, the remaining activity at 3.75 µM in test [2] (setting [17]) came to 99.4%.
Turning to `CO[C@H]1C[C@H](O[C@H]2[C@H](C)[C@@H](O[C@@H]3O[C@H](C)C[C@H](N(C)C)[C@H]3OC(C)=O)[C@@H](C)C[C@@]3(CO3)C(=O)[C@H](C)[C@@H](OC(C)=O)[C@@H](C)[C@@H](C)OC(=O)[C@@H]2C)O[C@@H](C)[C@@H]1OC(C)=O` [Troleandomycin], the remaining activity at 1.25 µM in test [1] (setting [18]) is 96.7%; in test [1] (setting [19]) it was 106%. In addition, the remaining activity at 3.75 µM amounted to 99.5% in test [2] (setting [18]) and 103% in test [2] (setting [19]).
On to `Cc1c(C)c2c(c(C)c1O)CCC(C)(C(=O)O)O2` (centres unmarked) [Trolox], for which the remaining activity at 1.25 µM in test [1] (setting [20]) amounted to 101%. For the same compound, the remaining activity at 3.75 µM in test [2] (setting [20]) is 99.4%.
On to `CN1[C@@H]2CC[C@H]1CC(O)C2` (some centres unmarked) [Tropine], for which, in test [1] (setting [21]), the remaining activity at 1.25 µM amounted to 105%. For the same compound, the remaining activity at 3.75 µM in test [2] (setting [21]) was 106%.
Consider `CN1[C@@H]2CC[C@H]1C[C@@H](OC(=O)c1c[nH]c3ccccc13)C2` [Tropisetron (Hydrochloride)], for which the remaining activity at 1.25 µM in test [1] (setting [22]) was 100%. In addition, the remaining activity at 3.75 µM in test [2] (setting [22]) is 102%.
For `CN1[C@@H]2CC[C@H]1C[C@@H](OC(=O)c1c[nH]c3ccccc13)C2` [Tropisetron], the remaining activity at 1.25 µM in test [1] (setting [23]) stood at 99.1%; in test [1] (Well no.=6607, read-out: % of control remaining) it was 103%. Also, in test [2] (setting [23]), the remaining activity at 3.75 µM came out at 101%.
Consider `O=C(O[C@H]1C[C@H]2CC[C@@H](C1)[N+]21CCCC1)C(O)(c1ccccc1)c1ccccc1` [Trospium (chloride)], for which the remaining activity at 1.25 µM in test [1] (setting [24]) was found to be 103%. Moreover, the remaining activity at 3.75 µM in test [2] (setting [24]) was 102%.
With `O=C(O[C@H]1C[C@H]2CC[C@@H](C1)[N+]21CCCC1)C(O)(c1ccccc1)c1ccccc1` [Trospium chloride (Sanctura)], the remaining activity at 1.25 µM in test [1] (setting [25]) was 97.3%. Further, the remaining activity at 3.75 µM in test [2] (setting [25]) was determined as 90.4%.
On to `C[C@@H]1O[C@@H](OC[C@H]2O[C@@H](Oc3c(-c4ccc(OCCO)c(OCCO)c4)oc4cc(OCCO)cc(O)c4c3=O)[C@H](O)[C@@H](O)[C@@H]2O)[C@H](O)[C@H](O)[C@H]1O` [Troxerutin], for which the remaining activity at 1.25 µM in test [1] (setting [26]) was 95.4%. Moreover, the remaining activity at 3.75 µM in test [2] (setting [26]) was 93.8%.
In the case of `NCCc1c[nH]c2ccccc12` [Tryptamine hydrochloride], in test [1] (setting [27]), the remaining activity at 1.25 µM came to 97.7%. Also, the remaining activity at 3.75 µM in test [2] (setting [27]) turned out to be 96.5%.
For `NCCc1c[nH]c2ccccc12` [Tryptamine], the remaining activity at 1.25 µM in test [1] (setting [28]) came to 97.9%. Besides, the remaining activity at 3.75 µM in test [2] (setting [28]) was 99.2%.
As for `O=C1c2ccccc2-n2c1nc1ccccc1c2=O` [Tryptanthrin], the remaining activity at 1.25 µM in test [1] (setting [29]) is 96.9%. For the same compound, the remaining activity at 3.75 µM in test [2] (setting [29]) is 100%.
For the compound `COc1cc(C(=O)O[C@H]2C/C(C)=C/CC/C(C)=C/[C@H](O)[C@@H]2C(C)C)ccc1O` [Tschimganidin], the remaining activity at 1.25 µM in test [1] (setting [30]) was 89.2%. The remaining activity at 3.75 µM in test [2] (setting [30]) came out at 100%.
Take `COc1cc(C(=O)O[C@H]2C[C@@H]3CC[C@]2(C)C3(C)C)ccc1O` [Tschimganine]: in test [1] (setting [31]), the remaining activity at 1.25 µM is 104%. The remaining activity at 3.75 µM in test [2] (setting [31]) turned out to be 104%.
As to `CN1CCc2c(c3ccccc3n2Cc2ccc(C(=O)NO)cc2)C1` [Tubastatin A HCl], in test [1] (setting [32]), the remaining activity at 1.25 µM was found to be 90.5%. In addition, in test [2] (setting [32]), the remaining activity at 3.75 µM stood at 88.7%.
In the case of `Nc1ncnc2c1ccn2[C@@H]1O[C@H](CO)[C@@H](O)[C@H]1O` [Tubercidin], in test [1] (setting [33]), the remaining activity at 1.25 µM is 96.1%. The remaining activity at 3.75 µM in test [2] (setting [33]) was found to be 95.7%.
Take `CCOc1ccc(-c2cn(C)nc2-c2cc(OC)c(OC)c(OC)c2)cc1` [Tubulin inhibitor 1]: the remaining activity at 1.25 µM in test [1] (setting [34]) is 104%. The remaining activity at 3.75 µM in test [2] (setting [34]) stood at 97.8%.
